The results in this text go back to patent US20070099877A1, “N-aryl-thienopyrimidin-4-amines and analogs as activators of caspases and inducers of apoptosis and the use thereof” (Cytovia, Inc., priority 2005, published 2007).

Counter-ions that a name gives are not always drawn.

For test [1], the system named is human Burkitt's lymphoma cell line Namalwa. Kind of test: Caspase cascade activation in Namalwa cells. The conditions noted are these: Burkitts lymphoma cell, 48 h, read-out: Caspase Activation Potency EC50 Namalwa. Format: cell-based.
The subject of test [2] is human colon cancer cell line HT29. Kind of test: Inhibition of cell proliferation (GI50) in HT29 cells. Format: cell-based. Conditions: HT-29, Table III, 48 h. How it is done: Human breast cancer cell lines T-47D, MX-1 and MDAMB435, human colon cancer cell line HT29, and human lung cancer cell line H1299 were grown and harvested as in Example 75. An aliquot of […] of cells (4.4×10^4 cells/mL) was added to a well of a 96-well microtiter plate containing 5 μL of a 10% DMSO in RPMI-1640 media solution containing 10 nM to 100 μM of N-(2,5-dimethoxyphenyl)-2-methylthieno[3,2-d]pyrimidin-4-amine (1 nM to 10 μM final). An aliquot of 45 μL of cells was added to a well of a 96-well microtiter plate containing 5 μL of a 10% DMSO in RPMI-1640 media solution without compound as the control sample for maximal cell proliferation (Lmax). The samples were mixed by agitation and then incubated at 37° C. for 48 h in a 5% CO2-95% humidity incubator. After incubation, the samples were removed from the incubator and 25 μL of CellTiter-Glo™ reagent (Promega) was added. The samples were mixed by agitation and incubated at room temperature for 10-15 min. Plates were then read using a luminescent plate reader (Model SPECTRAfluor Plus, Tecan) to give Ltest values.
Baseline for GI50 (dose for 50% inhibition of cell proliferation) of initial cell numbers was determined by adding an aliquot of 45 μL of cells or 45 μL of media, respectively, to wells of a 96-well microtiter plate containing 5 μL of a 10% DMSO in RPMI-1640 media solution. The samples were mixed by agitation and then incubated at 37° C. for 0.5 h in a 5% CO2-95% humidity incubator. After incubation, the samples were removed from the incubator and 25 μL of CellTiter-Glo™ reagent (Promega) was added. The samples were mixed by agitation and incubated at 37° C. for 10-15 min at room temperature in a 5% CO2-95% humidity incubator. Fluorescence was read as above, (LStart) defining luminescence for initial cell number used as baseline in GI50 determinations.
GI50 (dose for 50% inhibition of cell proliferation) is the concentration where [(LTest−Lstart)/(LMax−Lstart)]=0.5.

The EC50 is the concentration at which the effect is half-maximal. Turning to `COc1cc(Nc2ncnc3ccsc23)cc(OC)c1` [Example 12, N-(3,5-Dimethoxyphenyl)thieno[3,2-d]pyrimidin-4-amine hydrochloride], the concentration for a half-maximal effect (EC50) in test [1] came to 356 nM.
As a reminder, the GI50 is the concentration giving 50% growth inhibition. Higher therefore signals less potent growth inhibition. For the compound `COc1ccc(OC)c(Nc2ncnc3ccsc23)c1` [Example 2, N-(2,5-Dimethoxyphenyl)thieno[3,2-d]pyrimidin-4-amine], growth in test [2] was halved (GI50) at 3630 nM.
